This note sets out measurements from ChEMBL document CHEMBL4665643 (Bioorg Med Chem Lett, 2019).

One series has as its target LRRK2 (Homo sapiens, UniProt Q5S007). In words: Inhibition of recombinant human GST-tagged LRRK2 (970 to 2527 residues) expressed in baculovirus expression system using LRRKtide as substrate at 0.1 uM incubated for 60 mins by Adapta assay relative to control. The settings on record: probe LRRKtide.
The target in series [1] is T1, Tyrosine-protein kinase JAK1 (Homo sapiens, UniProt P23458). In words: biochemical.
Description: Inhibition of recombinant human JAK1 (854 to 1154 residues) expressed in insect cells using Y1-B as substrate incubated for 30 mins by microfluidic mobility shift assay
The target of series [2] is Tyrosine-protein kinase JAK2 (Homo sapiens, UniProt O60674).
Description: Inhibition of recombinant human JAK2 (812 to 1132 residues) expressed in insect cells using Y1-B as substrate incubated for 30 mins by microfluidic mobility shift assay
Series [3] is described as follows: in vitro. To be noted: dog, MDCK.
Description: Apparent permeability across apical to basolateral side in MDCK cells at 10 uM incubated upto 180 mins by LC/MS-MS analysis
Series [4] can be described thus: Lipophilicity, logD of compound. Type of series: physicochemical. To be noted: octanol/water.
A short description of series [5]: Metabolic stability in human liver microsomes assessed as intrinsic clearance at 1 uM measured upto 60 mins by LC-MS/MS analysis. Type of series: ADME, Microsome. The settings on record: read-out: CLH. In general terms: Liver microsomes are vesicles of endoplasmic reticulum, rich in cytochrome P450 enzymes.
The next series concerns the target Janus Kinase (JAK) (Homo sapiens, UniProt P52333+P23458+O60674+P29597). To be noted: beas-2b.
A short description of series [6]: in vitro. To be noted: dog, MDCK. This is another data set of the same source.
Description: Efflux ratio of apparent permeability basolateral to apical over apical to basolateral side in MDCK cells at 10 uM incubated upto 180 mins by LC/MS-MS analysis
The target of series [7] is Leucine-rich repeat serine/threonine-protein kinase 2 (Homo sapiens, UniProt Q5S007). The experiment in a line: Inhibition of recombinant human GST-tagged LRRK2 (970 to 2527 residues) expressed in baculovirus expression system using LRRKtide as substrate incubated for 60 mins by Adapta assay.
For series [8], the target named is T1, Tyrosine-protein kinase JAK1.

T1 sequence (P23458 whole entry): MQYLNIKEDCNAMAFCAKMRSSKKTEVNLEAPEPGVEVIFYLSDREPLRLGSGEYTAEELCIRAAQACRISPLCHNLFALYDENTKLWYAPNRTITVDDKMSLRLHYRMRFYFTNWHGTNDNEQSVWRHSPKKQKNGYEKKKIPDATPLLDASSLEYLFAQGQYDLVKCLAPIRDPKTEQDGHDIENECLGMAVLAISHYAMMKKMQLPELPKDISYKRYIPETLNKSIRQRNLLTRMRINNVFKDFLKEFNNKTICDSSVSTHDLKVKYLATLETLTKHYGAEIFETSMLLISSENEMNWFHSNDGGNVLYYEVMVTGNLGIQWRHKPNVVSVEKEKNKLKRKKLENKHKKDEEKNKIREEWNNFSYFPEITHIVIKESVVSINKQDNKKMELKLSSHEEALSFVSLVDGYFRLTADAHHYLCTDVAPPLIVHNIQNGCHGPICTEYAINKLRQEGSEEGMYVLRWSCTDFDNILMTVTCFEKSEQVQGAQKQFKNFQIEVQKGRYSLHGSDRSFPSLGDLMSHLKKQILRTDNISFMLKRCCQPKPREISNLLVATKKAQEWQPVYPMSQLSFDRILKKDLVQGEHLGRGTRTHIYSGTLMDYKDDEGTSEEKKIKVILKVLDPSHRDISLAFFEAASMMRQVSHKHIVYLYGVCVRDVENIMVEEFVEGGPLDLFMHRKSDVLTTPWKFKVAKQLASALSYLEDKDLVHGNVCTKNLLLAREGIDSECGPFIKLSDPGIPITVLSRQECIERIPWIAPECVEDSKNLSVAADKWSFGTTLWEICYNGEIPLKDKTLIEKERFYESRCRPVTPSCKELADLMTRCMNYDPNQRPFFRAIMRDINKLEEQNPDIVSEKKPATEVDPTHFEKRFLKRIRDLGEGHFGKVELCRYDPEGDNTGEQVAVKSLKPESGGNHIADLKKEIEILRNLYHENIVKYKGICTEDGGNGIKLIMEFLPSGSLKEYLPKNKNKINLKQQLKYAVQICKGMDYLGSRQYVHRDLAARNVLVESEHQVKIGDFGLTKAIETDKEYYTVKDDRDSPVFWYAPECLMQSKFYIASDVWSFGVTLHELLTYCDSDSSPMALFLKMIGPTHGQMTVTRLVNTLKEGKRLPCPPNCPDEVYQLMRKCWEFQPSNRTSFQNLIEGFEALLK
Chain of LRRK2 (Q5S007 whole entry, the tested form may be a part): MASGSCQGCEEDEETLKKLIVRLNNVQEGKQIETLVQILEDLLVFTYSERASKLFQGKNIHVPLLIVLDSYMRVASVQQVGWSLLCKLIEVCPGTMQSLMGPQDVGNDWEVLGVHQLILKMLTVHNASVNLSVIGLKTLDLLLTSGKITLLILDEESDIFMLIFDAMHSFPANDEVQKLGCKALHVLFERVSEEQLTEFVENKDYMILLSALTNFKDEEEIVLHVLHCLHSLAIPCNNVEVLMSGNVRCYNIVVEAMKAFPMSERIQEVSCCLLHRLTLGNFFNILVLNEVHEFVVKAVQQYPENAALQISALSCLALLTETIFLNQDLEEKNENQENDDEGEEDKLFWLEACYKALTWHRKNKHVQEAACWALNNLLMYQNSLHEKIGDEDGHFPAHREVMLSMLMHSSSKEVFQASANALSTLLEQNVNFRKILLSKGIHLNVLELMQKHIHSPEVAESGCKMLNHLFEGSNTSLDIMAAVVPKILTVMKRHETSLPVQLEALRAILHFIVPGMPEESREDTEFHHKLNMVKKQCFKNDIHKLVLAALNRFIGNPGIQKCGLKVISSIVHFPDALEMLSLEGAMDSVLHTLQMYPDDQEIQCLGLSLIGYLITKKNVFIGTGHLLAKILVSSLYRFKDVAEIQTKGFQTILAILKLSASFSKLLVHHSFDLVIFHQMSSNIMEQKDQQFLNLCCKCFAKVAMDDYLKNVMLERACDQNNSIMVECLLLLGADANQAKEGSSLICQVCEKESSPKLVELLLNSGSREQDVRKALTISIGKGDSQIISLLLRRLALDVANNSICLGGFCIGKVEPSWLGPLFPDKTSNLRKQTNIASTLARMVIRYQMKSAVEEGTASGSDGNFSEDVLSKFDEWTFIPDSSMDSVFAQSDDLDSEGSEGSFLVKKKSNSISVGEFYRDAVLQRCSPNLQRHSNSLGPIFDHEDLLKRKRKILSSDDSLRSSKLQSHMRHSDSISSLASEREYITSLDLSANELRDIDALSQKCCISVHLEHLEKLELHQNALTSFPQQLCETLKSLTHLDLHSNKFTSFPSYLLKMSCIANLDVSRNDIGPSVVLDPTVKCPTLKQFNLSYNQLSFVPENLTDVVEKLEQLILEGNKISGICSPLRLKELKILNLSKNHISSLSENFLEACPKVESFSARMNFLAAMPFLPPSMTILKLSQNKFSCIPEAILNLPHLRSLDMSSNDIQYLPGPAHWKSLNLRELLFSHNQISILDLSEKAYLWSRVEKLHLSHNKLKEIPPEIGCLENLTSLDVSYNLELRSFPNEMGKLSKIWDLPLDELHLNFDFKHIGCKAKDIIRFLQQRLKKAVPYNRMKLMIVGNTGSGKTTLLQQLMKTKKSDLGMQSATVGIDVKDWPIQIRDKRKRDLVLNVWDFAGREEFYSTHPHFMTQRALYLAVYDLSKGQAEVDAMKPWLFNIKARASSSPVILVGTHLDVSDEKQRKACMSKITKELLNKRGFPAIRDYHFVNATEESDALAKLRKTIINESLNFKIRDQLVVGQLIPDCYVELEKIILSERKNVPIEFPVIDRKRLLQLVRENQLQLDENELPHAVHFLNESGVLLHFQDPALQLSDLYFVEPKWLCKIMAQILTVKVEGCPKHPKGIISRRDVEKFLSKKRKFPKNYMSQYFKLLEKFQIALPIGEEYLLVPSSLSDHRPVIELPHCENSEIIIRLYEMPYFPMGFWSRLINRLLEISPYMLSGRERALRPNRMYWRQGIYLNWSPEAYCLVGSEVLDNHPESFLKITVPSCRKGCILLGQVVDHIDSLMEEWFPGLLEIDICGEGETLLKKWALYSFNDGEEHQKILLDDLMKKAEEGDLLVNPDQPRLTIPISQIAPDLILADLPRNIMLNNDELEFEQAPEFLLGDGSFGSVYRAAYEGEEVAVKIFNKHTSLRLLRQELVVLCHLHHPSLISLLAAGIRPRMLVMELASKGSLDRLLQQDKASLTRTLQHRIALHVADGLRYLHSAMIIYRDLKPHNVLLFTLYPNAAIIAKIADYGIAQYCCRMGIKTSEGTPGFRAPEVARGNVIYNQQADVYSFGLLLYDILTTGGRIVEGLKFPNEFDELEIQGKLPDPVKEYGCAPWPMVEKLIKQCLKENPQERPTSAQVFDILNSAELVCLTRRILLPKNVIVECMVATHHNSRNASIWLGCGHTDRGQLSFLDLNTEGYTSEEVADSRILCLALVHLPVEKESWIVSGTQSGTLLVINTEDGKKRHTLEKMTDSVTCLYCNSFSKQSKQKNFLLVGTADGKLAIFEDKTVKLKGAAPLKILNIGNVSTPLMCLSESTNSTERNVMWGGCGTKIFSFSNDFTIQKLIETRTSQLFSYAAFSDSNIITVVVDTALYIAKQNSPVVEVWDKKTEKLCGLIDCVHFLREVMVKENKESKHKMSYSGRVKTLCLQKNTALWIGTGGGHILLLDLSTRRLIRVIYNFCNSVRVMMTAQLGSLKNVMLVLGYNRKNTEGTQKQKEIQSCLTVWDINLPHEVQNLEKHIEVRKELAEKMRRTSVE
Chain of Tyrosine-protein kinase JAK2 (O60674 whole entry): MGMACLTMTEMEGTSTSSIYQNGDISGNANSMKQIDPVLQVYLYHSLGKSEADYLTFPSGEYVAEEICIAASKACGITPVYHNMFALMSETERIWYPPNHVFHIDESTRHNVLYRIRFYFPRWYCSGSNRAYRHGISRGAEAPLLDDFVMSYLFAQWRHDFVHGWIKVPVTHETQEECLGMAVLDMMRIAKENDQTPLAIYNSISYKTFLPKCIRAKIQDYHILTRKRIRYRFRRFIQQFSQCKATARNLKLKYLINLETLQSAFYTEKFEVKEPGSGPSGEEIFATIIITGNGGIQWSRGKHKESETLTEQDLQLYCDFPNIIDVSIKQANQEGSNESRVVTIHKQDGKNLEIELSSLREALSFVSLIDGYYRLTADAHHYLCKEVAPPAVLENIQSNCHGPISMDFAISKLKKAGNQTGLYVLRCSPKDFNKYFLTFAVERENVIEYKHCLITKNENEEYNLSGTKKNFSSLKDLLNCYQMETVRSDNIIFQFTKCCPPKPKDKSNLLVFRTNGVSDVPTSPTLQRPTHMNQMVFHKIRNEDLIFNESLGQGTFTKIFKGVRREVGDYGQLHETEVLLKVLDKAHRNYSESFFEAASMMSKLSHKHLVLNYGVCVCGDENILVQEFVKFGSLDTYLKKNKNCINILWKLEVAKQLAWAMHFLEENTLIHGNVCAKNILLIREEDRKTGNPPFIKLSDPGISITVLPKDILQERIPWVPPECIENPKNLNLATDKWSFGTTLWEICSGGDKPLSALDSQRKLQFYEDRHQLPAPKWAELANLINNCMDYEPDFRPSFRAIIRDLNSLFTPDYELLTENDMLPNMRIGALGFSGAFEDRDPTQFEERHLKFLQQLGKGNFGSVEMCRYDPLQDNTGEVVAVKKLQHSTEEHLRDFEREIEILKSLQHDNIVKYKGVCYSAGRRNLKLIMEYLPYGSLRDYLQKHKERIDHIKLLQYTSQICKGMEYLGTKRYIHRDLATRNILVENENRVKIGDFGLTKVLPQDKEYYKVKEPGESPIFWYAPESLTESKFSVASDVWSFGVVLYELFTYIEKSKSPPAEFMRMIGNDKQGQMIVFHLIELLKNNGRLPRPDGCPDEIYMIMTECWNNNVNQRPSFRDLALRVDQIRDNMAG
Chain of Leucine-rich repeat serine/threonine-protein kinase 2 (Q5S007 whole entry, the tested form may be a part): as the sequence (Q5S007 whole entry, the tested form may be a part) above
Description for Janus Kinase (JAK): Inhibition of JAK in human BEAS-2B cells assessed as reduction in IL13-induced STAT6 phosphorylation incubated for 1 hr followed by IL13 addition and measured after 15 mins by immunofluorescence assay

Take `O=C(Nc1c[nH]nc1-c1cc2cn[nH]c2cc1OC(F)F)c1cnn2cccnc12`: at LRRK2, the inhibition (usually the drop in the measured response relative to a control, in per cent) at 1 h, 0.1 µM stood at 89%. Moreover, the Ki – broadly, a measure of affinity in units of concentration, obtained from inhibition or displacement – in series [1] is 0.075 nM; in series [2], 0.052 nM. Also, in the series “in vitro [3]”, the Papp A→B (in general, how fast a substance crosses the layer from the apical side) at 3 h, 10 µM is 1.6 ×10⁻⁶ cm/s. In series [4], the logD (in general, the decadic logarithm of the distribution of all forms, ionised or not, between an organic phase and buffer at a given pH) is 1.6. Further, the CLint scaled at 1 µM in [5] worked out at 4.4 mL/min/kg. Further, the IC50 – broadly, the concentration at which inhibition is half-maximal – on Janus Kinase (JAK) came to 40 nM. The efflux ratio (commonly the permeability from basolateral to apical divided by that in the opposite direction, in the common usage) at 3 h, 10 µM in “in vitro [6]” was 1.
On to `O=C(Nc1c[nH]nc1-c1cc(I)ccc1OC(F)F)c1cnn2cccnc12`, for which the inhibition at 1 h, 0.1 µM at LRRK2 is 91%. Also, the figures for the Ki in [1] and in series [2] were 0.15 nM and 0.045 nM, respectively. The molecule also displayed a Papp A→B at 3 h, 10 µM in “in vitro [3]” of 15 ×10⁻⁶ cm/s. Also, the logD in [4] is 3.4. Moreover, in series [5], the CLint scaled at 1 µM amounted to 15 mL/min/kg. The IC50 at Janus Kinase (JAK) was found to be 2.8 nM. Besides, the efflux ratio at 3 h, 10 µM in “in vitro [6]” was 1.
As to `CCn1c(C(=O)N(C2CC2)C2CC2)cc2c3c(ncn3C)c(Nc3cc(C)n(C)n3)nc21` [BMS-911543], the Ki in [1] came out at 360 nM. In “in vitro [3]”, this molecule displayed a Papp A→B at 3 h, 10 µM of 16 ×10⁻⁶ cm/s. For the same molecule, the half-maximal inhibitory concentration (IC50) at Janus Kinase (JAK) is > 1000 nM. The efflux ratio at 3 h, 10 µM in “in vitro [6]” was determined as 0.94.
The corresponding values for `Cc1cc(Nc2nccc3nc(-c4c(Cl)cc(C#N)cc4Cl)[nH]c23)ncn1` are 23 nM, 16 ×10⁻⁶ cm/s, 1300 nM and 0.81.
Take `Cn1cc(NC(=O)c2cnn3cccnc23)c(-c2cc(Cl)ccc2Cl)n1`: the Papp A→B at 3 h, 10 µM in “in vitro [3]” was determined as 20 ×10⁻⁶ cm/s. This molecule came in with a logD in [4] of 2.9.
With `O=C(Nc1c[nH]nc1-c1cc(Br)ccc1OC(F)F)c1cnn2cccnc12`, the inhibition at 1 h, 0.1 µM on LRRK2 is 86%. Moreover, the Ki in series [1] was found to be 0.12 nM; in series [2], 0.047 nM. Also, the Papp A→B at 3 h, 10 µM in “in vitro [3]” was 17 ×10⁻⁶ cm/s. Besides, in [4], the logD came out at 3.2. The CLint scaled at 1 µM in series [5] was found to be 15 mL/min/kg. The molecule further gave an IC50 at Janus Kinase (JAK) of 3.3 nM. The efflux ratio at 3 h, 10 µM in the series “in vitro [6]” is 1.2.
Take `Nc1nn2cccnc2c1C(=O)Nc1c[nH]nc1-c1cc(Cl)ccc1OC(F)F`: the inhibition at 1 h, 0.1 µM at LRRK2 was found to be 99%. Further, the Ki in [1] was 0.19 nM; in series [2], 0.042 nM. The Papp A→B at 3 h, 10 µM in “in vitro [3]” is 15 ×10⁻⁶ cm/s. Also, the logD in [4] is 3.3. Also, the CLint scaled at 1 µM in series [5] is 11 mL/min/kg. On Janus Kinase (JAK), this molecule yielded an IC50 of 4 nM. The efflux ratio at 3 h, 10 µM in “in vitro [6]” amounted to 0.83.
`O=C(Nc1c[nH]nc1-c1cc(Cl)ccc1OC(F)F)c1cncc2c[nH]nc12`: the IC50 in series [7] was 79 nM; in series [8], 1.9 nM; on Janus Kinase (JAK) it was 18 nM. Also, the inhibition at 1 h, 0.1 µM at LRRK2 was 52%. Moreover, the results for the Ki in [1] and in series [2] were 0.56 nM and 0.49 nM, respectively. In the series “in vitro [3]”, the apical-to-basolateral permeability (Papp A→B) at 3 h, 10 µM turned out to be 9.5 ×10⁻⁶ cm/s. The Ratio IC50 in the series filed under Homo sapiens was found to be 41. Further, the logD in series [4] was found to be 2.7. Also, the CLint scaled at 1 µM in series [5] worked out at 15 mL/min/kg. In “in vitro [6]”, the efflux ratio at 3 h, 10 µM amounted to 1.9.
